Laboratory results reported in publication PMC8473641, “Dual blocking of PI3K and mTOR signaling by DHW‐221, a novel benzimidazole derivative, exerts antitumor activity in human non‐small cell lung cancer” (Clinical and Translational Medicine, 2021).
Read-outs that look alike come from different tables or passages of the source.

Experiments:
mTOR kinase = mTOR kinase (Homo sapiens, UniProt P42345); test: mTOR kinase assay in vitro; type: biochemical
HCC827 = test: SRB assay HCC827; type: cell-based; conditions: Homo sapiens, mean±SD
Description: (§1) To investigate the effect of DHW‐221 in vitro, SRB assay was performed. […] Additionally, the long‐term efficacy of DHW‐221 was evaluated and confirmed a better antiproliferation role than NVP‐BEZ235 (Figure 2C–E). Figure 2F investigates the concentration‐dependently inhibition of DHW‐221 on protein synthesis in cells. HCC827 xenograft models in both subcutaneous and orthotopic were used to further evaluate its antitumor potency in vivo. […] Moreover, DHW‐221 treatment could ameliorate the burden of orthotopic carcinoma to nude mice (Figure 2O, P).
(§2) FIGURE 2 DHW‐221 inhibits the viability of NSCLC cells both in vitro and in vivo. (A) The structure of compound DHW‐221. (B) The viability of HCC827, NCI‐H292, NCI‐H1993, and A549 cells treated with various concentrations of DHW‐221 at 24, 48, and 72 h was determined by sulforhodamine B (SRB) assay. (C–E) The growth‐inhibitory effect of DHW‐221 on HCC827 and NCI‐H1993 cells was measured using a colony formation assay (C), a lactate dehydrogenase (LDH) assay (D), and a tumor sphere formation assay (E). […] (F) OPP‐labeled protein content was detected by luciferase plate. (G) Tumor‐burdened nude mice and resected tumor samples from subcutaneous xenografts after 21 days (n = 6). (H) Subcutaneous tumor volume was measured daily with a caliper. (I) Mean tumor weight was measured to subcutaneous xenografts at the end of the experiment. (J) Subcutaneous xenografts nude mice were weighed daily on an electronic scale. (K) The index of each main organ of subcutaneous xenografts nude mice. (L) Liver and kidney function indexes subcutaneous xenografts nude mice were evaluated to predict drug toxicity. (M) Hematoxylin and eosin (H&E) staining of the liver, spleen, and kidney from subcutaneous xenografts nude mice; scale bar = 100 µm. (N) Photographs of NSCLC orthotopic tumor samples, n = 6. (O) Orthotopic xenografts nude mice were weighed daily on an electronic scale. (P) The index of lung organ was measured from orthotopic xenografts nude mice. Mean ± SD; *p < 0.05, **p < 0.01, ***p < 0.001 versus the control (model). […]

NCI-H292 = test: SRB assay NCI-H292; type: cell-based; conditions: Homo sapiens, mean±SD
Description: as §1, §2

NCI-H1993 = test: SRB assay NCI-H1993; type: cell-based; conditions: Homo sapiens, mean±SD
Description: as §1, §2

A549 = test: SRB assay A549; type: cell-based; conditions: Homo sapiens, mean±SD
Description: as §1, §2

Pharmacokinetics in mice = type: in vivo; conditions: mouse, plasma, 10 mg/kg; for MRT inf: read-out: MRTinf_obs
Description: ^a Values are the average of three runs. Vehicle: DMSO:ethanol:saline=3:100:897. ^b Dose:10 mg/kg. T1/2, half-life; Cmax, maximum concentration; Tmax, time of maximum concentration; AUCall, area under the plasma concentration time curve.

[1] = tested on: normal cell lines (HL7702, HUVEC, and MRC-5); test: SRB cytotoxicity toward normal cell lines; type: cell-based; conditions: MRC-5, 72 h
Description: as §1
Figure S3. The effect of DHW-221 on normal cell lines. SRB assay was used to determine the cytotoxicity of DHW-221 toward normal cell lines (HL7702, HUVEC, and MRC-5) at 72 h. Mean ± SD; **p < 0.01, ***p < 0.001 vs. the control. One-way analysis of variance followed by Tukey’s post hoc multiple-comparisons test.

HCC827 xenograft = HCC827 xenograft models (subcutaneous and orthotopic) in nude mice; type: in vivo
Description: as §1, §2

NSCLC cells = test: Cell cycle analysis by flow cytometry; type: cell-based, human; conditions: 48 h, concentration-dependently
Text: The PI3K/AKT/mTOR pathway is strongly linked to the regulation of cell cycle progression and apoptosis during cell proliferation.[6], [7] […] Meanwhile, the expression of endogenous cyclins in G0/G1 phase was detected by western blot, confirming that DHW‐221 regulated the cell cycle (Figure 3B). Apoptosis is crucial for anticancer drugs to kill cancer cells.[7] […] Finally, the proapoptotic effects of DHW‐221 were confirmed by western blot analysis of apoptosis‐related protein expression both in vitro and in vivo (Figure 3G–I).
FIGURE 3 DHW‐221 induces cell cycle arrest and cell apoptosis in NSCLC both in vitro and in vivo. (A) DHW‐221 and NVP‐BEZ235 were detected by flow cytometry for 48 h. The raw histogram is shown at the top and the quantification of specific cell cycle stages at the bottom. (B) Western blot analysis of the expression levels of cell cycle‐related proteins in HCC827 and NCI‐H1993 cells after 48 h of treatment with the specified concentrations of DHW‐221 and NVP‐BEZ235. (C) Hoechst 33342 staining results. Apoptotic cells are bright blue; scale bar, 50 µm. […] Green fluorescence indicates decreased mitochondrial membrane potential, red fluorescence indicates normal mitochondrial membrane potential; scale bar, 100 µm. […] (G–I) The expression levels of apoptosis‐related proteins in NSCLC cells (G, H) and tumor tissues (I) were detected by western blot. […]

Notch2 and Notch3 = test: Western blot of Notch pathway proteins; type: cell-based, human; conditions: HCC827 and NCI-H1993 cells, 48 h
Description: The PI3K signaling pathway is interrelated with Notch. However, the regulatory relationship between Notch and PI3K/AKT/mTOR pathways is still unclear. Next, we investigated the effects of DHW-221 on Notch and its downstream critical target Hes-1.
Figure S2. DHW-221 blocks the notch pathway. HCC827 and NCI-H1993 cells were treated with DHW-221 or NVP-BEZ235 for 48 h following which western blotting was performed on the cell lysates. Mean ± SD; **p < 0.01, ***p < 0.001 vs. the control. One-way analysis of variance followed by Tukey’s post hoc multiple-comparisons test.

p-mTOR = test: Western blot of p-AKT and p-mTOR in PI3K knocked down HCC827 cells; type: cell-based, human
Text: First, we identified potential targets of DHW‐221. […] For mTOR, DHW‐221 precisely overlapped with it and formed two more hydrogen bonds (Val2240 and Thr2245) than NVP‐BEZ235 (Figure 1A). […] Additionally, we knocked down PI3K in HCC827 cells (Figure 1C) and compared how DHW‐221, NVP‐BEZ235, and wortmannin (a PI3K inhibitor) treatments affected AKT and mTOR protein phosphorylation levels. […] Finally, western blot and immunofluorescence analysis confirmed the effect of DHW‐221 on the expression of PI3K/AKT/mTOR pathway‐related proteins both in vitro and in vivo (Figure 1E–G). […] The effects of DHW‐221 on notch pathway are provided in Result S1.
FIGURE 1 DHW‐221 is a PI3K/mTOR dual‐target inhibitor and inhibits the PI3K/AKT/mTOR signaling pathway. (A) Predicted binding modes for DHW‐221 (blue stick) with PI3Kα (PDB code: 4JPS) and mTOR (PDB code: 4JT6). Hydrogen bonds are shown as green dashed lines. Key residues for DHW‐221 and BEZ235 interaction are highlighted. (B) A cellular thermal shift assay (CETSA) and an isothermal dose–response fingerprinting (ITDRF)cetsa were used to evaluate the thermal stability of DHW‐221 bound to PI3Kα/β or mTOR. (C, D) The expression of PI3K, p‐AKT, and p‐mTOR in transfected NSCLC cells was assessed by western blot. […]

## COc1ncc(-c2ccc3ncn(-c4ccc(OCCO)cc4)c3c2)cc1NS(=O)(=O)c1ccc(F)cc1F [DHW-221]
mTOR kinase
  IC50: 3.9 nM
HCC827; 24h, n=3, read-out: IC50 HCC827 24h
  IC50: 8330 ± 1450 nM
HCC827; 48h, n=3, read-out: IC50 HCC827 48h
  IC50: 970 ± 127 nM
HCC827; 72h, n=3, read-out: IC50 HCC827 72h
  IC50: 32 ± 18 nM
NCI-H292; 24h, n=3, read-out: IC50 NCI-H292 24h
  IC50: 7320 ± 2420 nM
NCI-H292; 48h, n=3, read-out: IC50 NCI-H292 48h
  IC50: 253 ± 149 nM
NCI-H292; 72h, n=3, read-out: IC50 NCI-H292 72h
  IC50: 26 ± 3 nM
NCI-H1993; 24h, n=3, read-out: IC50 NCI-H1993 24h
  IC50: 3230 ± 1290 nM
NCI-H1993; 48h, n=3, read-out: IC50 NCI-H1993 48h
  IC50: 762 ± 83 nM
NCI-H1993; 72h, n=3, read-out: IC50 NCI-H1993 72h
  IC50: 117 ± 54 nM
A549; 24h, n=3, read-out: IC50 A549 24h
  IC50: 7140 ± 1240 nM
A549; 48h, n=3, read-out: IC50 A549 48h
  IC50: 893 ± 288 nM
A549; 72h, n=3, read-out: IC50 A549 72h
  IC50: 372 ± 86 nM
Pharmacokinetics in mice; iv
  AUC: 262 ± 75.7 µg·h/mL
  Cmax: 67400 ± 8540 ng/mL
  Tmax: 0.083 h
  half-life: 3.7 ± 0.2 h
  MRT inf: 4.7 ± 0.3 h
Pharmacokinetics in mice; po vs iv, read-out: F (oral bioavailability)
  bioavailability: 67.5%
Pharmacokinetics in mice; po
  AUC: 176 ± 51.1 µg·h/mL
  Cmax: 11800 ± 3400 ng/mL
  Tmax: 3 ± 1.7 h
  half-life: 7.1 ± 0.9 h
  MRT inf: 11.4 ± 0.3 h
[1]
  effect on normal cells: without affecting the normal cells
HCC827 xenograft; HCC827 subcutaneous and orthotopic xenografts, nude mice
  tumor growth: apparently inhibited tumor growth
HCC827 xenograft; subcutaneous xenograft nude mice, high dose
  alanine aminotransferase concentration: increased at high dose
HCC827 xenograft; xenograft nude mice
  body weight: without affecting body weight
NSCLC cells
  cell cycle arrest: arrested at G0/G1 phase
Notch2 and Notch3
  expression of Notch2 and Notch3: had no effect
p-mTOR
  p-mTOR expression compared with wortmannin: significantly decreased

## Cn1c(=O)n(-c2ccc(C(C)(C)C#N)cc2)c2c3cc(-c4cnc5ccccc5c4)ccc3ncc21 [NVP‐BEZ235, reference compound]
p-mTOR
  p-mTOR expression compared with wortmannin: significantly decreased
